From patent publication US9896441B2 (Lycera Corporation, priority 2014, dated 2018) come the findings set out here.

One experiment addresses T1, Gal4-RORγ-LBD (Homo sapiens, UniProt P51449).
T1 construct: expressed in transfected cells
T1 sequence (P51449 269-508 limits assumed): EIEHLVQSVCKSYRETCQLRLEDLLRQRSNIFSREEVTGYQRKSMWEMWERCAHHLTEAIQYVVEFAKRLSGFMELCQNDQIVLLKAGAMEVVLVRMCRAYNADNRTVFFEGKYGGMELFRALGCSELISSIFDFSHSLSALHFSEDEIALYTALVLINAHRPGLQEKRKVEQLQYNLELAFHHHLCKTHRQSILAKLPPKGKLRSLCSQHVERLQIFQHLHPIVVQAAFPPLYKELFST
The experiment can be described thus: Gal4-RORγ Luciferase Reporter Assay in HEK-293T Cells. The experiment is classed as cell-based. As to conditions: HEK-293 cells, luciferase reporter; for Gal4-RORγ Assay Max Response: maximum response. In a few lines:
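HEK-293 cells were co-transfected with Gal4-RORγ-LBD and a Gal4-luciferase reporter, then exposed overnight at 37 °C to compounds with […] ursolic acid present (0.2% DMSO). Luminescence was read with One-Glo after 10 min at RT, untreated signal was set as 100, and Max Response was taken as the upper plateau of a 4-parameter logistic fit.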

The target in the next experiment is T2, RORγ-LBD (Homo sapiens, UniProt P51449).
T2 construct: made in house; host or cells: SF9 cells (baculovirus); used as diluted lysate
T2 sequence (P51449 269-508 limits assumed): T1 sequence (P51449 269-508 limits assumed)
The experiment can be described thus: RORγ-Ligand Binding Domain (LBD) TR-FRET Assay.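 On TR-FRET Assay Max Response: 665/615 nm signal ratio set to 100 without ursolic acid or test compound.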 It counts as biochemical. The note with it: for TR-FRET Assay Max Response: maximum response. In a few lines:
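SF9 lysate containing His-RORγ-LBD, ~3 nM final; coactivator peptide biotin-SRC1 LXXLL, 200 nM final; ursolic acid 2 μM final; DMSO 1% final; Tris pH 7.0 buffer with KCl, EDTA, DTT, BSA. TR-FRET format.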
(In general: Time-resolved FRET reads energy transfer from a long-lived donor to a nearby acceptor.)

As for `COC(=O)CC[C@H]1CN(S(=O)(=O)c2cccc(OC(F)F)c2)c2cc(/C=C/c3c(F)cccc3C(F)(F)F)ccc2O1` [Example 89AJ, (S,E)-methyl 3-(4-((3-(difluoromethoxy)phenyl)sulfonyl)-6-(2-fluoro-6-(trifluoromethyl)-styryl)-3,4-dihydro-2H-benzo[b][1,4]oxazin-2-yl)propanoate], the 50% effective concentration (EC50) (in general, the concentration giving half of the maximal effect) at Gal4-RORγ-LBD (with ursolic acid) is 500 to 5000 nM; at RORγ-LBD (RORγ-LBD TR-FRET), less than 500 nM.

`CCn1cc(S(=O)(=O)N2C[C@H](CNC(C)=O)Oc3c(F)cc(/C=C(\C)c4c(F)cccc4Cl)cc32)c(Cl)n1` [Example 109A, (S,E)-N-((4-((3-chloro-1-ethyl-1H-pyrazol-4-yl)sulfonyl)-6-(2-(2-chloro-6-fluorophenyl)prop-1-en-1-yl)-8-fluoro-3,4-dihydro-2H-benzo[b][1,4]oxazin-2-yl)methyl)acetamide]: on Gal4-RORγ-LBD (in presence of ursolic acid), the half-maximal effective concentration (EC50) is less than 500 nM and the “Gal4-RORγ Assay Max Response” value is on record as “* (a value in the range of 30 to 90)”. Moreover, on RORγ-LBD (RORγ-LBD TR-FRET assay), the concentration for a half-maximal effect (EC50) is less than 500 nM and the “TR-FRET Assay Max Response” value is “*** (a value in the range of greater than 150 to 200)”.

`CCOc1nn(CC)cc1S(=O)(=O)N1C[C@H](CCC(=O)O)Oc2ccc(/C=C/c3c(Cl)cccc3C(C)(F)F)cc21` [Example 89FE, (S,E)-3-(6-(2-chloro-6-(1,1-difluoroethyl)styryl)-4-((3-ethoxy-1-ethyl-1H-pyrazol-4-yl)sulfonyl)-3,4-dihydro-2H-benzo[b][1,4]oxazin-2-yl)propanoic acid]: the EC50 at Gal4-RORγ-LBD (with ursolic acid) and on RORγ-LBD (RORγ-LBD TR-FRET) was less than 500 nM each time.

On to `O=C(O)CC[C@H]1CN(S(=O)(=O)c2cccc(C(F)(F)F)c2)c2cc(/C=C/c3ncccc3Cl)ccc2O1` [Example 89BK, (S,E)-3-(6-(2-(3-chloropyridin-2-yl)vinyl)-4-((3-(trifluoromethyl)phenyl)sulfonyl)-3,4-dihydro-2H-benzo[b][1,4]oxazin-2-yl)propanoic acid], for which the EC50 on Gal4-RORγ-LBD (with ursolic acid) and at RORγ-LBD (RORγ-LBD TR-FRET) was less than 500 nM in each case.

For the compound `Cc1cccc(C)c1/C=C/c1ccc2c(c1)N(S(=O)(=O)c1cccc(OC(F)F)c1)C[C@H](CCC(=O)O)O2` [Example 89AC, (S,E)-3-(4-((3-(difluoromethoxy)phenyl)sulfonyl)-6-(2,6-dimethylstyryl)-3,4-dihydro-2H-benzo[b][1,4]-oxazin-2-yl)propanoic acid], the half-maximal effective concentration (EC50) at Gal4-RORγ-LBD (with ursolic acid) is 500 to 5000 nM; at RORγ-LBD (RORγ-LBD TR-FRET), less than 500 nM.

With `O=C(O)CC[C@H]1CN(S(=O)(=O)c2cccc(C(F)(F)F)c2)c2cc(/C=C/c3cccc(Cl)c3C(F)(F)F)ccc2O1` [Example 89CO, (S,E)-3-(6-(3-chloro-2-(trifluoromethyl)styryl)-4-((3-(trifluoromethyl)phenyl)sulfonyl)-3,4-dihydro-2H-benzo[b][1,4]oxazin-2-yl)propanoic acid], the figures for the half-maximal effective concentration (EC50) at Gal4-RORγ-LBD (with ursolic acid) and at RORγ-LBD (RORγ-LBD TR-FRET) were 500 to 5000 nM and less than 500 nM, respectively.

For the compound `C/C(=C\c1ccc2c(c1)N(S(=O)(=O)c1cncc(C(F)(F)F)c1)C[C@H](CCC(=O)O)O2)c1c(F)cccc1Cl` [Example 75, (S,E)-3-(6-(2-(2-Chloro-6-fluorophenyl)prop-1-en-1-yl)-4-((5-(trifluoromethyl)pyridin-3-yl)sulfonyl)-3,4-dihydro-2H-benzo[b][1,4]oxazin-2-yl)propanoic acid], the concentration giving a half-maximal response (EC50) at Gal4-RORγ-LBD (with ursolic acid) was 500 to 5000 nM; on RORγ-LBD (RORγ-LBD TR-FRET), less than 500 nM.

Take `COC(=O)CC[C@H]1CN(S(=O)(=O)c2cccc(OC(F)F)c2)c2cc(/C=C(\C)c3c(F)cccc3Cl)cc(F)c2O1` [Example 51, Methyl (S,E)-3-(6-(2-(2-chloro-6-fluorophenyl)prop-1-en-1-yl)-4-((3-(difluoromethoxy)phenyl)sulfonyl)-8-fluoro-3,4-dihydro-2H-benzo[b][1,4]oxazin-2-yl)propanoate]: the EC50 on Gal4-RORγ-LBD (with ursolic acid) and at RORγ-LBD (RORγ-LBD TR-FRET) was less than 500 nM throughout.

`O=C(O)CC[C@H]1CN(S(=O)(=O)c2cc(C(F)(F)F)cnc2OCCO)c2cc(C=C3CCCCC3)ccc2O1` [Example 95C, (S)-3-(6-(cyclohexylidenemethyl)-4-((2-(2-hydroxyethoxy)-5-(trifluoromethyl)pyridin-3-yl)sulfonyl)-3,4-dihydro-2H-benzo[b][1,4]oxazin-2-yl)propanoic acid]: the values for the EC50 on Gal4-RORγ-LBD (with ursolic acid) and at RORγ-LBD (RORγ-LBD TR-FRET) were 500 to 5000 nM and less than 500 nM, respectively.

For the compound `C/C(=C\c1ccc2c(c1)N(S(=O)(=O)c1cn(C(C)C)nc1OCCO)C[C@H](CCC(=O)O)O2)c1c(F)cccc1Cl` [Example 86AY, (S,E)-3-(6-(2-(2-chloro-6-fluorophenyl)prop-1-en-1-yl)-4-((3-(2-hydroxyethoxy)-1-isopropyl-1H-pyrazol-4-yl)sulfonyl)-3,4-dihydro-2H-benzo[b][1,4]oxazin-2-yl)propanoic acid], the concentration giving a half-maximal response (EC50) on Gal4-RORγ-LBD (with ursolic acid) and at RORγ-LBD (RORγ-LBD TR-FRET) was less than 500 nM throughout.

Regarding `CCOc1ncc(C(F)(F)F)cc1S(=O)(=O)N1C[C@H](CCC(=O)OC)Oc2ccc(/C=C/c3c(OC)cccc3C(F)(F)F)cc21` [Example 89EU, methyl (S,E)-3-(4-((2-ethoxy-5-(trifluoromethyl)pyridin-3-yl)sulfonyl)-6-(2-methoxy-6-(trifluoromethyl)styryl)-3,4-dihydro-2H-benzo[b][1,4]-oxazin-2-yl)propanoate], the values for the EC50 on Gal4-RORγ-LBD (with ursolic acid) and on RORγ-LBD (RORγ-LBD TR-FRET) were 500 to 5000 nM and less than 500 nM, respectively.

In the case of `CCn1cc(S(=O)(=O)N2C[C@H](CCC(=O)O)Oc3ccc(/C=C(\C)c4c(F)cccc4Cl)cc32)c(Cl)n1` [Example 86G, (S,E)-3-(4-((3-chloro-1-ethyl-1H-pyrazol-4-yl)sulfonyl)-6-(2-(2-chloro-6-fluorophenyl)prop-1-en-1-yl)-3,4-dihydro-2H-benzo[b][1,4]oxazin-2-yl)propanoic acid], the EC50 at Gal4-RORγ-LBD (with ursolic acid) was 500 to 5000 nM; at RORγ-LBD (RORγ-LBD TR-FRET) it was less than 500 nM.

`CCOc1nn(CC)cc1S(=O)(=O)N1C[C@H](CCC(=O)O)Oc2ccc(/C=C/c3ncccc3Cl)cc21` [Example 89EE, (S,E)-3-(6-(2-(3-chloropyridin-2-yl)vinyl)-4-((3-ethoxy-1-ethyl-1H-pyrazol-4-yl)sulfonyl)-3,4-dihydro-2H-benzo[b][1,4]oxazin-2-yl)propanoic acid]: the EC50 was 500 to 5000 nM at Gal4-RORγ-LBD (with ursolic acid) and less than 500 nM on RORγ-LBD (RORγ-LBD TR-FRET).

For `O=C(O)CC[C@H]1CN(S(=O)(=O)c2cccc(C(F)(F)F)c2)c2cc(/C=C/c3cccnc3Cl)ccc2O1` [Example 89CD, (S,E)-3-(6-(2-(2-chloropyridin-3-yl)vinyl)-4-((3-(trifluoromethyl)-phenyl)sulfonyl)-3,4-dihydro-2H-benzo[b][1,4]oxazin-2-yl)-propanoic acid], the EC50 at Gal4-RORγ-LBD (with ursolic acid) was 500 to 5000 nM; at RORγ-LBD (RORγ-LBD TR-FRET), less than 500 nM.

With `C/C(=C\c1ccc2c(c1)N(S(=O)(=O)c1cccc(C(F)(F)F)c1)C[C@H](CCC(=O)N1CCC1)O2)c1c(F)cccc1Cl` [Example 127H, (S,E)-1-(azetidin-1-yl)-3-(6-(2-(2-chloro-6-fluorophenyl)prop-1-en-1-yl)-4-((3-(trifluoromethyl)phenyl)sulfonyl)-3,4-dihydro-2H-benzo[b][1,4]oxazin-2-yl)propan-1-one], at Gal4-RORγ-LBD (in presence of ursolic acid), the EC50 was less than 500 nM and the “Gal4-RORγ Assay Max Response” value was “** (a value in the range of greater than 90 to 150)”. In addition, at RORγ-LBD (RORγ-LBD TR-FRET assay), the EC50 is less than 500 nM and the “TR-FRET Assay Max Response” value is “*** (a value in the range of greater than 150 to 200)”.

As for `O=C(O)CC[C@H]1CN(S(=O)(=O)c2cccc(OC(F)F)c2)c2cc(/C=C/c3c(F)cccc3C(F)(F)F)ccc2O1` [Example 89AI, (S,E)-3-(4-((3-(difluoromethoxy)phenyl)sulfonyl)-6-(2-fluoro-6-(trifluoromethyl)-styryl)-3,4-dihydro-2H-benzo[b][1,4]oxazin-2-yl)propanoic acid], the EC50 on Gal4-RORγ-LBD (with ursolic acid) was 500 to 5000 nM; on RORγ-LBD (RORγ-LBD TR-FRET), less than 500 nM.

`C/C(=C\c1ccc2c(c1)N(S(=O)(=O)c1cccc(C(F)(F)F)c1)C[C@H](CCC(=O)N(C)CC(=O)O)O2)c1c(F)cccc1Cl` [Example 129F, (S,E)-N-(3-(6-(2-(2-chloro-6-fluorophenyl)-prop-1-en-1-yl)-4-((3-(trifluoromethyl)phenyl)sulfonyl)-3,4-dihydro-2H-benzo[b][1,4]oxazin-2-yl)propanoyl)-N-methylglycine]: on Gal4-RORγ-LBD (in presence of ursolic acid), the EC50 was less than 500 nM and the “Gal4-RORγ Assay Max Response” value is on record as “*** (a value in the range of greater than 150 to 200)”. On RORγ-LBD (RORγ-LBD TR-FRET assay), the concentration for a half-maximal effect (EC50) was less than 500 nM and the “TR-FRET Assay Max Response” value is given as “*** (a value in the range of greater than 150 to 200)”.

With `Cn1nc(/C=C/c2ccc3c(c2)N(S(=O)(=O)c2cccc(C(F)(F)F)c2)C[C@H](CCC(=O)O)O3)c2c(Cl)cccc21` [Example 89BO, (S,E)-3-(6-(2-(4-chloro-1-methyl-1H-indazol-3-yl)vinyl)-4-((3-(trifluoromethyl)phenyl)sulfonyl)-3,4-dihydro-2H-benzo[b][1,4]-oxazin-2-yl)propanoic acid], the values for the half-maximal effective concentration (EC50) at Gal4-RORγ-LBD (with ursolic acid) and at RORγ-LBD (RORγ-LBD TR-FRET) were 500 to 5000 nM and less than 500 nM, respectively.
